Data: patent US9334246B2, “Substituted triazines for malaria treatment and chemoprophylaxis” (The United States of America, as represented by the …, priority 2013, dated 2016)

Tests used:
Type in all cases: cell-based, Plasmodium falciparum
P. falciparum W2 = assay: Malaria SYBR Green Fluorescence Assay, W2 strain; details: for W2: SYBR Green Assay
P. falciparum D6 = assay: Malaria SYBR Green Fluorescence Assay, D6 strain; details: for D6: SYBR Green Assay
P. falciparum C235 = assay: Malaria SYBR Green Fluorescence Assay, C235 strain; details: for C235: SYBR Green Assay

Row | Compound | W2 (P. falciparum W2) [ng/mL] | D6 (P. falciparum D6) [ng/mL] | C235 (P. falciparum C235) [ng/mL] | W2 (SYBR Green Assay IC50) (P. falciparum W2) [µg/mL] | D6 (SYBR Green Assay IC50) (P. falciparum D6) [µg/mL] | C235 (SYBR Green Assay IC50) (P. falciparum C235) [µg/mL]
1 | Cc1ccc(-c2ccccc2-c2nc(NCCN3CCCC3)nc(C(Cl)(Cl)Cl)n2)cc1 [Cmpd 266] | 474 | 654 | 530 | – | – | –
2 | CC(C)N1CCC(CNc2nc(-c3ccc4ccccc4c3)nc(C(Cl)(Cl)Cl)n2)CC1 [Cmpd 494] | – | – | – | 0.018 | 0.038 | 0.023
3 | ClC(Cl)(Cl)c1nc(NCCc2cnccn2)nc(-c2ccccc2)n1 [Cmpd 540] | – | – | – | 0.088 | 0.151 | 0.213
4 | NC1CCN(c2nc(-c3ccc(Cl)cc3)nc(C(Cl)(Cl)Cl)n2)CC1 [Compound 630, NC1CCN(CC1)C1═NC(═NC(═N1)C(Cl)(Cl)Cl)C1═CC═C(Cl)C═C1] | – | – | – | 0.01 | 0.012 | 0.013
5 | NC1(CNc2nc(-c3ccc(Cl)c(Cl)c3)nc(C(Cl)(Cl)Cl)n2)CCCCC1 [Compound 670, NC1(CNC2═NC(═NC(═N2)C2═CC(Cl)═C(Cl)C═C2)C(Cl)(Cl)Cl)CCCCC1] | 20 | 22 | 38 | – | – | –
6 | CN1CCC(CNc2nc(-c3ccc(S(C)(=O)=O)cc3)nc(C(Cl)(Cl)Cl)n2)CC1 [Cmpd 510] | – | – | – | 0.088 | 0.416 | 0.273
7 | NC1(CNC2═NC(═NC(═N2)C2═CC(Cl)═CC═C2)C(Cl)(Cl)Cl)CC1 [Compound 680] | 35 | 100 | 98 | – | – | –
8 | ClC(Cl)(Cl)c1nc(NCCc2ccccn2)nc(-c2ccccc2)n1 [Cmpd 188] | 42 | 176 | 197 | – | – | –
9 | NC1CCN(c2nc(-c3cccc(C(F)(F)F)c3)nc(C(Cl)(Cl)Cl)n2)CC1 [Compound 625, NC1CCN(CC1)C1═NC(═NC(═N1)C1═CC═CC(═C1)C(F)(F)F)C(Cl)(Cl)Cl] | – | – | – | 0.012 | 0.047 | 0.02
10 | CCN(CC)CCNc1nc(-c2cc(OC)cc(OC)c2)nc(C(Cl)(Cl)Cl)n1 [Cmpd 479] | – | – | – | 0.012 | 0.038 | 0.017
11 | COc1ccc(-c2nc(NCC3CCN(C)CC3)nc(C(Cl)(Cl)Cl)n2)c2ccccc12 [Cmpd 517] | – | – | – | 0.007 | 0.023 | 0.012
12 | CC(=O)Nc1cccc(Nc2nc(NCCC3CCCN3C)nc(C(Cl)(Cl)Cl)n2)c1 (stereo not drawn) [Cmpd 92] | 106 | 122 | 164 | – | – | –
13 | CS(=O)(=O)c1ccc(-c2nc(NCCc3ccncc3)nc(C(Cl)(Cl)Cl)n2)cc1 [Cmpd 178] | 162 | 392 | 518 | – | – | –
14 | COc1ccc(-c2nc(NCCc3cccnc3)nc(C(Cl)(Cl)Cl)n2)cc1 [Cmpd 174] | 181 | 430 | 641 | – | – | –
15 | CN1CCN(c2nc(-c3cccc(Cl)c3)nc(C(Cl)(Cl)Cl)n2)CC1 [Cmpd 436] | – | – | – | 0.019 | 0.155 | 0.158
16 | CC(C)(C)c1ccc(-c2nc(N3CCCNCC3)nc(C(Cl)(Cl)Cl)n2)cc1 [Cmpd 115] | 242 | 357 | 360 | – | – | –
17 | CN1CCN(c2nc(-c3ccc(F)cc3)nc(C(Cl)(Cl)Cl)n2)CC1 [Cmpd 390] | – | – | – | 0.143 | 0.495 | 0.567
